Experiments:
CT26 cells = assay: Anti-tumor vaccination assay, CT26 cells in BALB/c mice; assay type: in vivo, mouse; conditions: for frequency of mice showing a protective response: 8 Gy + 10 μM compound 24 h
Method: FIG. 5. Identification of cannibalism modulators as immunogenic cell death inducers. MCA205 (A) or CT26 (E, I, M, Q) cells were treated with the indicated drugs. After 24 h of coculture with the indicated treatment, cell death was monitored by staining DiOC6(3) and PI, and the percentage of dying (DiOC6(3)^low PI^−, open bars) and dead (DiOC6(3)^low PI^+, closed bars) cells was determined by cytofluorometry. (B-D) MCA205 cells or (F-H, J-L, N-P, R-T) CT26 cells cocultured after x irradiation with the indicated compounds were inoculated subcutaneously into the right flank of […] or BALB/c mice, respectively. Seven days later, the mice were rechallenged with live cells injected into the opposite flank, and tumor growth was monitored (five mice per group).
FIG. 6. Tumor vaccination experiments. CT26 cells were treated for 24 hours with 10 μM VP331 (A, F, K), 10 μM Minaprine (B, G, L), 10 μM Lopa87 (C, H, M), 10 μM SG6163F (D, I, N), 10 μM Azaguanine-8 (8-aza) (E, J, O) alone or combined with 8 Gy ionizing radiation and inoculated (s.c.) into immunocompetent BALB/c mice, which were rechallenged at the opposite flank 7 days later with the same cancer cells. The percentage of tumor-free mice was evaluated three times a week for the following 38 days. Percentage of total tumor free mice (A-E), tumor free-mice at the first injection site (F to J, P) or at the second injection site (K to O, Q) are shown. (*P<0.05, **P<0.01, ***P<0.001, two-way ANOVA).
The combination of IRCCE with IR induces efficient antitumor immunity. Considering that immunogenic cell death (ICD) inducers were identified (such as Digoxin, Digitoxin, Lanatoside C or Doxorubicin hydrochloride)^3, 4, 48-51) as IRCCE, the ability of these compounds to induce an antitumor immunity after radiotherapy was evaluated. First, a preclinical approaches was developed to study the immunological effects of IRCCE on two mouse models of carcinoma (colon CT26 carcinoma and fibrosarcoma MCA205). Initially, the ability of the combination of IRCCE+IR to trigger a specific anti-tumor immune response was appreciated using immunocompetent mice through anti-tumor vaccination assays. According to previously published studies^52, the injection of cancer cells succumbing to an immunogenic cell death (ICD) into immunocompetent mice must elicit a protective immune response that is specific for tumor antigens. Thus, 3×10^5 MCA205 cells were first treated with 10 μM of SG6163F for 24 hours. Then, treated cells were inoculated subcutaneously in 200 μl PBS into the lower flank of 8-week-old female C57BL/6 mice. One week later, 3×10^4 untreated control cells were inoculated into the contralateral flank of mice. Tumors were evaluated weekly using a common caliper. Animals bearing tumors that exceeded 20-25% body mass were euthanatized. […] Then, 3×10^6 CT26 cells were irradiated with 8 Gy in presence of 10 μM of SG6163F (FIGS. 5E and 5F), VP331 (FIGS. 5I and 5J), Minaprine dihydrochloride (FIGS. 5M and 5N) or LOPA87 (FIGS. 5Q and 5R) for 24 hours. Then, cells were inoculated as previously described subcutaneously in […] into the lower flank of 8-week-old female BALB/c mice. One week later, 5×10^5 untreated control cells were inoculated into the contralateral flank of mice and tumors were evaluated weekly using a common caliper. As previously mentioned, animals bearing tumors that exceeded 20-25% body mass were euthanatized. The percentage of dying cells in each condition was evaluated by determining with DiOC(6)3/IP staining (FIGS. 5E, 5I, 5M and 5Q). Finally, the ability of these compounds to repress the growth of cancer cells that have been injected 7 days after injection of irradiated and treated cancer cells was appreciated.
A second anti-tumor vaccination assay was done on CT26 mouse models of carcinoma as previously described. […]

CT26 tumor cells = assay: Tumor growth in immunocompetent mice after intratumoral or intraperitoneal injection; assay type: in vivo, mouse; conditions: Balb/c mice
Method: FIG. 7. Minaprine reduces tumor growth in immunocompetent mice after intratumoral or intraperitoneal injections. (A-C) 3 10^6 CT26 cells were implanted in immunocompetent BALB/c mice. Palpable tumors were injected with 10 μM Minaprine (or control) after 6 days. The tumor growth volume was then determined three times a week for the following 38 days (A and B). The percentage of mice survival was also determined (C). (D-I) 5 10^5 CT26 cells were implanted in immunocompetent BALB/c mice. After 12 days, tumor bearing mice were intraperitoneally injected with control (D and I), 0.3 mg/kg (E and I), 1 mg/kg (F and I), 3 mg/kg (G and I) or 10 mg/kg (H and I) of Minaprine. Tumor growth volumes (A-J) and fold change in the tumor volumes after intraperitoneal injection (D-I) were analyzed. Tumor growth volumes were the determined three times a week for the following 38 days.
For intratumoral injection, 3 10^6 Balb/c-derived CT26 tumor cells were subcutaneously implanted in 8 week-old Balb/c mice (Janvier Laboratories). After 6 days, 10 μM of Minaprine or control phosphate buffer saline (PBS) was injected into tumors (20 μl) and tumor volume was evaluated 3 times a week. For intraperitoneal injection, 5 10^5 Balb/c-derived CT26 tumor cells were subcutaneously implanted in 8 week-old Balb/c mice (Janvier Laboratories). After 12 days, tumor-bearing mice were intraperitonealy injected with different concentrations of Minaprine (0.3, 1, 3 and 10 mg/kg) or PBS. Tumor volume was also evaluated 3 times a week. The experiments were randomized, performed in compliance with the EU Directive 63/2010 and approved by Ethical Committee at Gustave Roussy Cancer Campus (CEEA IRCIV/IGR n^o26).
No statistical methods or criteria were used to estimate sample size or to include/exclude samples. The investigators were not blinded to group allocation during experiments and outcome assessment. Results are expressed as mean value SEM. To determine statistical significance, Two-way ANOVA (FIG. 7A) and Log rank (Mantel-Cox) (FIG. 7I) tests were used for calculation of P values. Prism 6 Software was used for the generation of survival graphs and statistical significance. Statistical significance was given as **p value<0.01 or *p value<0.05.
We first subcutaneously implanted 3 10^6 Balb/c-derived CT26 colon cancer cells in immunocompetent Balb/c mice. After 6 days, tumor-bearing mouse were randomized and 10 μM of Minaprine (3 mg/kg) was injected into tumors. Tumor growth was analyzed during 38 days.
We next determined whether intraperitoneal injections of Minaprine could also impact tumor growth. Thus, 5 10^5 Balb/c-derived CT26 cells were implanted into immunocompetent Balb/c mice. After 12 days, tumor-bearing mice were randomized, intraperitoneally injected with control (FIGS. 7D and 7I) or with Minaprine at different concentrations (FIGS. 7E-7I).

Cc1cc(-c2ccccc2)nnc1NCCN1CCOCC1.Cl.Cl [Minaprine dihydrochloride]
frequency of mice showing a protective response (CT26 cells; first assay: CT26 cells, rechallenge one week later): significant increase in the frequency of mice showing a protective response | protective response after injection of cancer cells (CT26 cells; second assay: CT26 cells treated with 10 μM compound alone (no IR)): induce an increase of protective response | frequency of mice showing a protective response (CT26 cells; second assay: CT26 cells, rechallenge 7 days later): Significant increases in the frequency of mice showing a protective response | tumor growth (CT26 tumor cells; intraperitoneal injection 1 mg/kg 12 days after implant of 5 10^5 CT26 cells): significantly decreased the growth of treated tumors | tumor growth (CT26 tumor cells; intraperitoneal injection 3 mg/kg 12 days after implant of 5 10^5 CT26 cells): significantly decreased the growth of treated tumors | tumor growth (CT26 tumor cells; intraperitoneal injection 10 mg/kg 12 days after implant of 5 10^5 CT26 cells): significantly decreased the growth of treated tumors | tumor growth (CT26 tumor cells; intratumoral injection 3 mg/kg (10 μM) 6 days after implant of 3 10^6 CT26 cells, followed 38 days): significantly decreases the growth of tumors | survival of treated mice (CT26 tumor cells; intratumoral injection 3 mg/kg, CT26 tumors, versus untreated control): increase survival
